According to publication PMC5727165, “A switch in nucleotide affinity governs activation of the Src and Tec family kinases” (Scientific Reports, 2017):
pKd: −log10 of the molar value.

Molecular target: T1, Src^32K (Mus musculus, UniProt P05480)
T1 construct: mouse Src^85-535 (Src^32K); GST (cleaved yes); made in house; host or cells: baculovirus-infected Sf9 insect cells, co-expressed with human Csk
Assay: Fluorescence anisotropy binding of Mant-labelled nucleotides
Excerpt: To characterise the nucleotide binding of Itk and Src, we purified recombinant wild type and mutant constructs of Itk and Src containing their respective SH3, SH2, and kinase domains (from here on referred to as Itk^32K, Src^32K, and Src^32KΔC, Fig. 1a). We confirmed the mass and homogeneity of isolated species by high-resolution anion exchange chromatography, intact mass spectrometry, and Western blotting with phospho-specific antibodies (Supplementary Figs 1–3). We performed fluorescence anisotropy measurements using Mant-labelled nucleotides. […] To avoid autophosphorylation during the course of the titration, we used the non-hydrolysable ATP analogue AMPPNP. […] Src^32K bound ADP approximately 6-fold more tightly than AMPPNP (Supplementary Fig. 4d).
Human Itk^171–620 (Itk^32K), mouse Src^85-535 (Src^32K), and mouse Src^85-523 (Src^32KΔC) as well as their respective point mutants were expressed as GST fusions in baculovirus-infected Sf9 insect cells. For the generation of Tyr527-phosphorylated Src^85-535, the protein was co-expressed with human Csk using pFastBac Dual (Invitrogen). Proteins were purified by sequential glutathione-sepharose affinity chromatography, TEV cleavage, high-resolution anion exchange, and size exclusion chromatography in a final buffer of 50 mM Tris, pH 7.5, 200 mM NaCl, 1 mM TCEP, 1% (v/v) glycerol.
The binding constants for ADP and AMPPNP were determined for Src and Itk proteins by fluorescence anisotropy, using 2′/3′-Mant-labelled nucleotides (Jena Bioscience). Increasing concentrations of Itk^32K, Itk^L351A or Src^32K were incubated with 40 μM Mant-nucleotide in 30 mM Tris pH 7.5, 200 mM NaCl, 5 mM MgCl2, and 1 mM TCEP. Measurements were made with a Perkin Elmer LS50B fluorimeter (λex = 355 nm, λem = 447 nm) at 20 °C. For each data point 50–60 measurements, each with an integration time of 1 s, were averaged. For competition nucleotide displacement assays, 40–80 μM of protein was incubated with 40 μM Mant-ADP until equilibrium was established. Unlabelled nucleotide was titrated into the reaction and fluorescence anisotropy monitored. The equilibrium inhibition constant for the unlabelled nucleotide was calculated from the fitted curve.

T1 sequence (P05480 85-535): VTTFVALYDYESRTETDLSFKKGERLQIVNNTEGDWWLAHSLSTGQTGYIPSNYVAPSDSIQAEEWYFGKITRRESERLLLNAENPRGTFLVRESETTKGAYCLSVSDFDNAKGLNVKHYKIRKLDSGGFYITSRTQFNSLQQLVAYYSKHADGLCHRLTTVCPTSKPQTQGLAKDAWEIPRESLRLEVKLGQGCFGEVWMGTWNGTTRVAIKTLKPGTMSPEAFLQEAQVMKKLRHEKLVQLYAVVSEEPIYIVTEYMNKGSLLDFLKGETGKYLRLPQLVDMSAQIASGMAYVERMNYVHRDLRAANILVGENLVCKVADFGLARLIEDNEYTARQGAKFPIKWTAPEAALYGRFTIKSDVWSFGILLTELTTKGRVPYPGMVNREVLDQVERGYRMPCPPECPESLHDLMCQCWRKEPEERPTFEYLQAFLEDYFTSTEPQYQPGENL

pKd (Mant-labelled nucleotide): 4.18
fold difference in affinity, ADP tighter than AMPPNP (direct Mant-nucleotide binding): approximately 6 fold
Compound: Nc1ncnc2c1ncn2[C@@H]1O[C@H](COP(=O)(O)OP(=O)(O)O)[C@@H](O)[C@H]1O [ADP]
